This note sets out measurements from patent US9962113B2, “Sensor for measuring the activity of beta-pancreatic cells or of islets of langerhans, manufacture and use of such a sensor” (UNIVERSITE DE BORDEAUX 1, priority 2010, dated 2018).

Where no end group is shown, it is not given here.

In this assay the test system is β-pancreatic cells. Description: Electrical signals (action potentials) of β-pancreatic cells in culture on the microelectrode sensor of FIG. 1. It counts as cell-based. On the procedure: In the example embodiment shown in FIG. 1, the sensor 2 includes a set of 60 microelectrodes distributed over 1 mm^2. The microelectrodes 21 have a disk shape 10 μm in diameter. The sensor 2 also includes β-pancreatic cells 23 in culture on the set of 60 microelectrodes 21. Laboratory tests have been conducted on the sensor 2 of FIG. 1. The first line of FIG. 2 specifies the times at which glucose is present at 20 mM, i.e. from 0 to 50 min. The second line specifies the times at which diazoxide is present at 200 μM, i.e. from around 13 to 16 min and around 27 to 35 min. […] An action potential waveform is visible at the dotted vertical line. The first line of FIG. 4 specifies the time at which the β-pancreatic cells 23 of the sensor 2 are placed in contact with the incretin hormone GLP-1, shown by a vertical arrow.

In the case of `CC1=NS(=O)(=O)c2cc(Cl)ccc2N1` [diazoxide], the “reversibility of the diazoxide effect on electrical activation” value (FIG. 2, after removal of diazoxide, glucose 20 mM alone) was “not definitive”. Moreover, the “physiological activity (action potentials) of the β-pancreatic cells of the sensor in the presence of diazoxide” value (FIG. 2, diazoxide 200 μM (around 13 to 16 min and 27 to 35 min) with glucose 20 mM) is “basal physiological activity”.

As to “GLP-1: incretin hormone, a physiological amplifier of the glucose response (HAEGTFTSDVSSYLEGQAAKEFIAWLVKGR; ends and bridges not checked; UniProt P01275 98-127, looked up)”, the “time after GLP-1 injection until electrical activation increases” value (FIG. 4) is on record as “twenty”. In addition, where the note is “FIG. 4, after injection of the incretin hormone GLP-1”, the “electrical activation (action potentials) of the β-pancreatic cells after GLP-1” value was “increases significantly”.
